Source: US12667546B2, “Methods for manipulating cell state transitions in cancer” (AGENCY FOR SCIENCE, TECHNOLOGY AND RESEARCH, priority 2018, dated 2026)
Several values for one entry are separate records, joined by “and”; a condition that tells them apart may be missing. Identical values can stand only once. Counter-ions that a name gives are not always drawn. Like-named read-outs stand apart in the source and are kept apart here.

Legend:
[1] = test system: SERPINE1prom-Luc reporter in NAMEC8 cells; test: Dual-Glo luciferase assay of SERPINE1prom-Luc reporter (FF/Ren); format: cell-based, human; details: for activity at 10 µM: Homo sapiens, 72 h, read-out: Avr FF/Renilla from DMSO; for dose-dependent change of SERPINE1 promoter activity: dose response (metabolic hits 10 nM to 2 μM; epigenetic hits six concentrations)
Text: pGreenFire1-mCMV was cut using ClaI and SpeI and gel purified. Promoter sequences of genes Zeb1, Serpine1, CDH1, CD24, CD44, CD166 were amplified from human genomic DNA with pre-designed primers containing ClaI and SpeI restriction cut sites using AccuPrime Taq DNA Polymerase (Thermo Fisher Scientific). PCR products were then digested with restriction enzymes and gel-purified. Vector was ligated with PCR insert using Quick Ligase (Fermentas) and transformed into Stb12 competent cells. Colonies were picked and inoculated into TB media with ampicillin. Plasmids were then isolated using a plasmid miniprep kit (Qiagen) and sent for sequencing (1 stBASE Laboratories). After verifying the plasmid sequence, transfection into HEK293 cells was carried out to generate lentivirus. Transfection was carried out using FuGENE 6 (Promega). Viral supernatant was harvested at 24 h and 48 h. NAMEC8 cells were then infected twice with virus using polybrene ([…]) and checked for good transduction efficiency using Dual-Glo Luciferase System (Promega).
Stock plates of compound libraries were kindly prepared by GIS CHiP facility at 1 mM concentration in DMSO. NAMEC8-SERPINE1prom-Luc cells were seeded into 384 well plates at a density of 700 cells/well in a total volume of 50 μl, using an automated dispensing system (BioTek). 0.5 μl of compounds were then added to the wells the following day using a robotic pin transfer with a Bravo workstation (Agilent Technologies). Cells were then grown for 3 days and promoter-luciferase activity was measured using the Dual-Glo Luciferase System (Promega).
Assay was carried out according to manufacturer's instructions. To measure luciferase activity in 384 well plates, media was first removed from the plate. Firefly luciferase activity was determined by adding 30 μl Dual-Glo Luciferase substrate (Promega) to the wells and incubated for 10 min before measuring luminescence using a TECAN M1000 Pro plate reader. 15 μl Dual-Glo Stop & Glo substrate was then added to the wells, incubated for 10 min and measuring luminescence on the plate reader to determine Renilla luciferase activity. Promoter luciferase activity is then calculated by taking Firefly luciferase over Renilla luciferase.

[2] = test system: NAMEC8-SERPINE1prom-Luc cells; test: Renilla-luciferase (constitutive CMV promoter) readout for cell numbers; format: cell-based, human; details: primary screen, Renilla as readout for cell numbers, relative to DMSO; for viability at 10 µM: Homo sapiens, 72 h, read-out: % Avr Renilla from DMSO
[3] = primary screen, NAMEC8-SERPINE1prom-Luc cells grown 3 days with compound, relative to DMSO
[4] = primary screen, […], relative to DMSO

Row | Compound | activity at 10 µM [1, 3] [%] | viability at 10 µM [2] [%] | Avr FF/Renilla from DMSO [1, 3] | % Avr Renilla from DMSO [2] | other results
1 | CCCn1c(=O)c2[nH]c(-c3ccc(S(=O)(=O)O)cc3)nc2n(CCC)c1=O [1,3-Dipropyl-8-p-sulfophenylxanthine] | 61 | 103 | – | – | –
2 | O=c1[nH]c(=O)n([C@H]2C[C@H](O)[C@@H](CO)O2)cc1Br [5-Bromo-2′-deoxyuridine] | 67 | 65.7 | – | – | –
3 | CCCCC[C@H](O)/C=C/[C@H]1[C@H](O)CC(=O)[C@@H]1CC(=O)CCCCC(=O)O [6-keto Prostaglandin E1] | – | – | 0.55 | 79.67% | –
4 | CCCCC/C=C\C=C1\C(=O)C[C@H](O)[C@@H]1C/C=C\CCCC(=O)O [15-deoxy-_12,14-Prostaglandin D2] | – | – | 0.57 | 68.09% | –
5 | CCCCC(C)(C)[C@H](O)/C=C/[C@H]1C(=O)C[C@H](O)[C@@H]1C/C=C\CCCC(=O)O [16,16-dimethyl Prostaglandin D2] | – | – | 0.48 | 52.62% | –
6 | O=C(O)CCC/C=C\C[C@H]1C(=O)C=C[C@@H]1/C=C/[C@@H](O)COc1ccccc1 [16-phenoxy tetranor Prostaglandin A2] | – | – | 0.59 | 82.64% | –
7 | Cc1cccc(-c2nn(C(=S)Nc3ccccc3)cc2-c2ccnc3ccccc23)n1 [A83-01] | – | – | – | – | downregulation of SERPINE1prom-Luc ([1]; positive control treatment): at least 50%
8 | CCCCCCCCc1ccc(-c2ccc(C(=O)O)cc2)cc1 [AC-55649] | – | – | 0.59 | 106.55% | –
9 | N#C/C(=C\c1ccc(O)c(O)c1)C(=O)NCc1ccccc1 [AG-490] | – | – | 0.47 | 64.03% | –
10 | O=C(Nc1cccc(C(F)(F)F)c1)Nc1cc(S(=O)(=O)NC2CC2)ccc1-c1ccsc1 [AGI-6780] | – | – | – | – | dose-dependent change of SERPINE1 promoter activity [1]: dose dependent decrease in SERPINE1 promoter activity
11 | CN(Cc1cnc2nc(N)nc(N)c2n1)c1ccc(C(=O)N[C@@H](CCC(=O)O)C(=O)O)cc1 [Abitrexate (Methotrexate), Methotrexate] | 56 | 55.6 | – | – | –
12 | C=CCc1ccccc1OCC(O)CNC(C)C (stereo not drawn) [Alprenolol hydrochloride] | 80 | 90.2 | – | – | –
13 | CCCCc1oc2ccccc2c1C(=O)c1cc(I)c(OCCN(CC)CC)c(I)c1 [Amiodarone hydrochloride] | 59 | 86.9 | – | – | –
14 | S=C(NCc1ccc2c(c1)OCO2)N1CCN(c2ncnc3c2oc2ccccc23)CC1 [Amuvatinib (MP-470)] | – | – | 0.37 and 0.23 | 140.20% and 213.43% | –
15 | CN1CCc2cccc3c2[C@H]1Cc1ccc(O)c(O)c1-3 [Apomorphine hydrochloride hemihydrate] | 84 | 85.1 | – | – | –
16 | Cc1cc(Nc2ncnc3ccc(NC4=NC(C)(C)CO4)cc23)ccc1Oc1ccn2ncnc2c1 [Arry-380] | 73 | 67.3 | – | – | –
17 | C[N+]1(C)[C@@H]2CC[C@H]1C[C@@H](OC(=O)C(CO)c1ccccc1)C2 (stereo partly drawn) [Atropine methyl nitrate] | 68 | 103 | – | – | –
18 | CCCCCCCCCCCCC/C=C/[C@@H](O)[C@H](CO)NC(=O)CCCCCCC [C-8 Ceramide] | – | – | 0.54 | 70.74% | –

Row | Compound | activity at 10 µM [1, 3] [%] | viability at 10 µM [2] [%] | Avr FF/Renilla from DMSO [1, 3] | % Avr Renilla from DMSO [2] | other results
19 | CS(=O)(=O)N1CCc2c(-c3cnc(N)nc3)nc(N3CCOCC3)nc21 [CH5132799] | 71 | 50.6 | – | – | –
20 | CC1(C(=O)O)C2CCC(O2)C1(C)C(=O)O (stereo not drawn) [Cantharidic Acid] | – | 74.6 | – | – | activity at 10 µM [1, 4]: 40%
21 | NC(=O)c1ccc(-c2nc(-c3ccc4c(c3)OCCO4)c(-c3ccccn3)[nH]2)cc1 [D 4476] | – | – | 0.57 | 53.26% | –
22 | COc1cccc(Nc2c(C(N)=O)cnc3c(C)cc(S(=O)(=O)c4cccc(C(=O)N(C)C)c4)cc23)c1 [GSK256066] | – | – | – | – | dose-dependent change of SERPINE1 promoter activity [1]: dose dependent decrease in SERPINE1 promoter activity
23 | CC1=C(/C=C/C(C)=C/C=C/C(C)=C\C(=O)O)C(C)(C)CCC1 [Isotretinoin] | 37 | 84.1 | – | – | –
24 | CN([C@@H](Cc1ccc(OS(=O)(=O)c2cccc3cnccc23)cc1)C(=O)N1CCN(c2ccccc2)CC1)S(=O)(=O)c1cccc2cnccc12 [KN-62] | – | – | 0.43 | 67.80% | –
25 | COc1ccc(S(=O)(=O)N(CCO)c2ccccc2CN(C)C/C=C/c2ccc(Cl)cc2)cc1 [KN-93] | – | – | 0.59 | 54.45% | –
26 | COc1ccc(Br)cc1S(=O)(=O)NC(=O)/C=C/c1ccccc1Cc1ccc2ccccc2c1 [L-798106] | – | – | 0.13 | 68.99% | –
27 | N[C@@H](CC(=O)O)C(=O)O [L-Aspartic acid] | 71 | 99.3 | – | – | –
28 | CC1(C)CNc2cc(NC(=O)c3cccnc3NCc3ccncc3)ccc21 [Motesanib Diphosphate (AMG-706), Motesanib Diphosphate] | 70 | 50.9 | – | – | –
29 | CCN(CC)CCCCNc1ncc2cc(-c3c(Cl)cccc3Cl)c(NC(=O)NC(C)(C)C)nc2n1 [PD-161570] | – | – | 0.39 | 74.13% | –
30 | CNC(=O)c1ccc(C)c(-n2c(C)cc(OCc3ccc(F)cc3F)c(Br)c2=O)c1 [PH-797804] | 67 | 53 | – | – | –
31 | CC(=O)Nc1nc(C)c(-c2ccc(Cl)c(S(=O)(=O)NCCO)c2)s1 [PIK-93] | – | – | – | 75.51% | Avr FF/Renilla from DMSO [1, 4]: 0.72
32 | CCCCC[C@H](O)/C=C/[C@H]1C(=O)C[C@H](O)[C@@H]1C/C=C\CCCC(=O)NCCO [Prostaglandin D2 Ethanolamide] | – | – | 0.55 | 65.62% | –
33 | CCCCCC(O)/C=C/C1C(=O)CC(O)C1C/C=C\CCCC(=O)OCC(O)CO (stereo not drawn) [Prostaglandin D2-1-glyceryl ester] | – | – | 0.59 | 58.41% | –
34 | CC(=O)O[C@@]12C[C@@H](C)[C@@]3(O)[C@@H](C=C(CO)C[C@]4(O)C(=O)C(C)=C[C@@H]34)[C@@H]1C2(C)C [Prostratin] | 55 | 146 | – | – | –
35 | O=C(Nc1ccc2[nH]ncc2c1)C1CCC1 [Rhodblock 6] | – | – | 0.87 | 89.97% | –
36 | CC[C@H](CO)Nc1nc(NCc2ccccc2)c2ncn(C(C)C)c2n1 [Roscovitine (Seliciclib, CYC202), Roscovitine] | – | 53.7 | – | – | activity at 10 µM [1]: 63%
